Reference: patent US11000033B2, “Ketone or oxime compound, and herbicide” (NISSAN CHEMICAL CORPORATION, priority 2014, dated 2021)

Legend:
Format in all cases: in vivo
Details in all cases: application herbicide amount 320 g/ha
[1] = system: Echinochloa oryzacola Vasing.; assay: Test Example 1: herbicidal activity, application before weed generation in submerged conditions (symbol A)
Text: (§1) Herbicidal Activity Test by Application Before Weed Generation in Submerged Conditions
(§2) After alluvial soil was placed into 1/10000 are of Wagner pot, water was poured and mixed to form a submerged condition having a water depth of 4 cm. Seeds of Echinochloa oryzacola Vasing., Scirpus juncoides, and Monochoria vaginalis were sowed in a mixed manner in the above pot and thereafter 2.5 leaf stage rice plant seedlings were transplanted thereto. On the day of sowing seeds, the emulsion agent of the compound of the present invention prepared in accordance with Formulation Example 2 was diluted with water so as to be a predetermined herbicide amount and the diluted emulsion agent was applied to the surface of the water. The pot was placed in a greenhouse of 25° C. to 30° C. to grow plant. 3 weeks later from the herbicide application, the effect to each plant was investigated in accordance with the following criteria.
(§3) 5 Herbicidal ratio of 90% or more (almost completely withered)
(§4) 4 Herbicidal ratio of 70% or higher and lower than 90%
(§5) 3 Herbicidal ratio of 40% or higher and lower than 70%
(§6) 2 Herbicidal ratio of 20% or higher and lower than 40%
(§7) 1 Herbicidal ratio of 5% or higher and lower than 20%
(§8) 0 Herbicidal ratio of 5% or lower (almost no effect)

Scirpus juncoides = assay: Test Example 1: herbicidal activity, application before weed generation in submerged conditions (symbol B)
Text: as §1, §2, §3, §4, §5, §6, §7, §8

Monochoria vaginalis = assay: Test Example 1: herbicidal activity, application before weed generation in submerged conditions (symbol C)
Text: as §1, §2, §3, §4, §5, §6, §7, §8

transplanted rice plant = assay: Test Example 1: effect on crop, application before weed generation in submerged conditions (symbol a)
Method: as §1
as §2, with “On the day of sowing seeds, the emulsion agent of the compound of the present invention prepared in accordance with Formulation Example 2 was diluted with water so as to be a predetermined herbicide amount and the diluted emulsion agent was applied to the surface of the water.” left out
as §3, §4, §5, §6, §7, §8

[2] = system: Echinochloa crus-galli var. crus-galli; assay: Test Example 3: herbicidal effect by foliage application, Wagner pot (symbol H)
Method: (§9) Herbicidal Effect Test by Foliage Application
(§10) After alluvial soil was placed into 1/10000 are of Wagner pot, water was poured and mixed to form a submerged condition having a water depth of 0.1 cm to 0.5 cm. Seeds of Echinochloa crus-galli var. crus-galli, Leptochloa chinensis, Cyperus difformis, and rice were sowed and the pot was placed in the greenhouse of 25° C. to 30° C. to grow the plants. After the plants were grown for 14 days, the emulsion agent of the compound of the present invention prepared in accordance with Formulation Example 2 was diluted with water so as to be a predetermined herbicide amount and the diluted emulsion agent was uniformly applied to a foliage part with a small-size spray. 3 weeks later from the herbicide application, the effect to each plant was investigated in accordance with the criteria of Test Example 1.

Leptochloa chinensis = assay: Test Example 3: herbicidal effect by foliage application, Wagner pot (symbol D)
Method: as §9, §10

Cyperus difformis = assay: Test Example 3: herbicidal effect by foliage application, Wagner pot (symbol E)
Method: as §9, §10

[3] = system: directly sowed rice plant; assay: Test Example 3: effect on crop by foliage application, Wagner pot (symbol b)
Method: as §9
After alluvial soil was placed into 1/10000 are of Wagner pot, water was poured and mixed to form a submerged condition having a water depth of 0.1 cm to 0.5 cm. Seeds of Echinochloa crus-galli var. crus-galli, Leptochloa chinensis, Cyperus difformis, and rice were sowed and the pot was placed in the greenhouse of 25° C. to 30° C. to grow the plants.

SMILES: CON=C(CCl)CC1CC(OC)=C(c2c(C)cc(C)cc2C)C1=O (stereo not drawn) [1-077]
- Herbicidal effect grade, A: Echinochloa oryzacola Vasing. [1]: 1 (Herbicidal ratio of 5% or higher and lower than 20%)
- Herbicidal effect grade, B: Scirpus juncoides (Scirpus juncoides): 2 (Herbicidal ratio of 20% or higher and lower than 40%)
- Herbicidal effect grade, C: Monochoria vaginalis (Monochoria vaginalis): 0 (Herbicidal ratio of 5% or lower (almost no effect))
- Effect grade on crop, a: transplanted rice plant (transplanted rice plant): 1 (Herbicidal ratio of 5% or higher and lower than 20%)

SMILES: CON=C(CCl)CC1CC(O)=C(c2c(C)cc(C)cc2C)C1=O (stereo not drawn) [1-084]
- herbicidal effect on H (Echinochloa crus-galli var. crus-galli), grade 0-5 [2]: 2 (Herbicidal ratio of 20% or higher and lower than 40%)
- herbicidal effect on D (Leptochloa chinensis), grade 0-5 (Leptochloa chinensis): 0 (Herbicidal ratio of 5% or lower (almost no effect))
- herbicidal effect on E, grade 0-5 (Cyperus difformis): 0 (Herbicidal ratio of 5% or lower (almost no effect))
- effect on crop b (directly sowed rice plant), grade 0-5 [3]: 1 (Herbicidal ratio of 5% or higher and lower than 20%)

SMILES: CON=C(C)CC1CC(OC(=S)N(C)C)=C(c2c(C)cc(C)cc2C)C1=O (stereo not drawn) [1-141]
- herbicidal effect on H (Echinochloa crus-galli var. crus-galli), grade 0-5 [2]: 2 (Herbicidal ratio of 20% or higher and lower than 40%)
- herbicidal effect on D (Leptochloa chinensis), grade 0-5 (Leptochloa chinensis): 0 (Herbicidal ratio of 5% or lower (almost no effect))
- effect on crop b (directly sowed rice plant), grade 0-5 [3]: 1 (Herbicidal ratio of 5% or higher and lower than 20%)

SMILES: CON=C(C)CC1CC(OC(=O)N(c2ccccc2)c2ccccc2)=C(c2c(C)cc(C)cc2C)C1=O (stereo not drawn) [1-157]
- herbicidal effect on H (Echinochloa crus-galli var. crus-galli), grade 0-5 [2]: 0 (Herbicidal ratio of 5% or lower (almost no effect))
- herbicidal effect on D (Leptochloa chinensis), grade 0-5 (Leptochloa chinensis): 4 (Herbicidal ratio of 70% or higher and lower than 90%)
- effect on crop b (directly sowed rice plant), grade 0-5 [3]: 0 (Herbicidal ratio of 5% or lower (almost no effect))

SMILES: CON=C(CC1CC(O)=C(c2c(C)cc(C)cc2C)C1=O)c1ccc(C)cc1 (stereo not drawn) [1-164]
- herbicidal effect on H (Echinochloa crus-galli var. crus-galli), grade 0-5 [2]: 2 (Herbicidal ratio of 20% or higher and lower than 40%)
- herbicidal effect on D (Leptochloa chinensis), grade 0-5 (Leptochloa chinensis): 3 (Herbicidal ratio of 40% or higher and lower than 70%)
- herbicidal effect on E, grade 0-5 (Cyperus difformis): 0 (Herbicidal ratio of 5% or lower (almost no effect))
- effect on crop b (directly sowed rice plant), grade 0-5 [3]: 4 (Herbicidal ratio of 70% or higher and lower than 90%)
